# Test: (§1) The drug is tested on Z-027 corresponding to metagenome with ENA study accession number: PRJEB37062 and ENA sample accession number: ERS12561826 for biotransformation under anaerobic condition. The drug concentrations were measured over 9 timepoints collected between 0 and 24 hours of incubation by liquid-chromatography-coupled mass spectrometry (LC–MS)
# Details: 2 µM
# Note: call rule not given here.
row,Bacterial Biotransformation,SMILES
1,Compound NOT metabolized,C[C@]12CCC(=O)C=C1[C@@H]1C[C@@H]1[C@H]1[C@@H]3[C@@H]4C[C@@H]4[C@@]4(CCC(=O)O4)[C@@]3(C)CC[C@@H]12 [DROSPIRENONE]
2,Compound metabolized,C#C[C@]1(OC(C)=O)CC[C@H]2[C@@H]3CCC4=C[C@@H](OC(C)=O)CC[C@@H]4[C@H]3CC[C@@]21C [ETHYNODIOL DIACETATE]

# Test: (§2) The drug is tested on Z-019 corresponding to rat gut metagenome with ENA study accession number: PRJEB37062 and ENA sample accession number: ERS12561818 for biotransformation under anaerobic condition. The drug concentrations were measured over 9 timepoints collected between 0 and 24 hours of incubation by liquid-chromatography-coupled mass spectrometry (LC–MS)
# Details: 2 µM
row,Bacterial Biotransformation,SMILES
1,Compound NOT metabolized,C[C@]12CCC(=O)C=C1[C@@H]1C[C@@H]1[C@H]1[C@@H]3[C@@H]4C[C@@H]4[C@@]4(CCC(=O)O4)[C@@]3(C)CC[C@@H]12 [DROSPIRENONE]
2,Compound NOT metabolized,C#C[C@]1(OC(C)=O)CC[C@H]2[C@@H]3CCC4=C[C@@H](OC(C)=O)CC[C@@H]4[C@H]3CC[C@@]21C [ETHYNODIOL DIACETATE]

# Test: as §2, with “on Z-018” for “on Z-019”, “to pig” for “to rat”, “number: ERS12561817” for “number: ERS12561818”
# Details: 2 µM
row,Bacterial Biotransformation,SMILES
1,Compound metabolized,C[C@]12CCC(=O)C=C1[C@@H]1C[C@@H]1[C@H]1[C@@H]3[C@@H]4C[C@@H]4[C@@]4(CCC(=O)O4)[C@@]3(C)CC[C@@H]12 [DROSPIRENONE]
2,Compound metabolized,C#C[C@]1(OC(C)=O)CC[C@H]2[C@@H]3CCC4=C[C@@H](OC(C)=O)CC[C@@H]4[C@H]3CC[C@@]21C [ETHYNODIOL DIACETATE]

# Test: as §2, with “Z-014” for “Z-019”, “ERS12561814” for “ERS12561818”
# Details: 2 µM
row,Bacterial Biotransformation,SMILES
1,Compound NOT metabolized,C[C@]12CCC(=O)C=C1[C@@H]1C[C@@H]1[C@H]1[C@@H]3[C@@H]4C[C@@H]4[C@@]4(CCC(=O)O4)[C@@]3(C)CC[C@@H]12 [DROSPIRENONE]
2,Compound metabolized,C#C[C@]1(OC(C)=O)CC[C@H]2[C@@H]3CCC4=C[C@@H](OC(C)=O)CC[C@@H]4[C@H]3CC[C@@]21C [ETHYNODIOL DIACETATE]

# Test: as §1, with “Z-010” for “Z-027”, “ERS12561810” for “ERS12561826”
# Details: 2 µM
row,Bacterial Biotransformation,SMILES
1,Compound metabolized,C[C@]12CCC(=O)C=C1[C@@H]1C[C@@H]1[C@H]1[C@@H]3[C@@H]4C[C@@H]4[C@@]4(CCC(=O)O4)[C@@]3(C)CC[C@@H]12 [DROSPIRENONE]
2,Compound metabolized,C#C[C@]1(OC(C)=O)CC[C@H]2[C@@H]3CCC4=C[C@@H](OC(C)=O)CC[C@@H]4[C@H]3CC[C@@]21C [ETHYNODIOL DIACETATE]

# Test: as §2, with “on Z-006” for “on Z-019”, “to mouse” for “to rat”, “number: ERS12561806” for “number: ERS12561818”
# Details: 2 µM
row,Bacterial Biotransformation,SMILES
1,Compound metabolized,C[C@]12CCC(=O)C=C1[C@@H]1C[C@@H]1[C@H]1[C@@H]3[C@@H]4C[C@@H]4[C@@]4(CCC(=O)O4)[C@@]3(C)CC[C@@H]12 [DROSPIRENONE]
2,Compound metabolized,C#C[C@]1(OC(C)=O)CC[C@H]2[C@@H]3CCC4=C[C@@H](OC(C)=O)CC[C@@H]4[C@H]3CC[C@@]21C [ETHYNODIOL DIACETATE]

# Test: as §1, with “Z-005” for “Z-027”, “ERS12561805” for “ERS12561826”
# Details: 2 µM
row,Bacterial Biotransformation,SMILES
1,Compound metabolized,C[C@]12CCC(=O)C=C1[C@@H]1C[C@@H]1[C@H]1[C@@H]3[C@@H]4C[C@@H]4[C@@]4(CCC(=O)O4)[C@@]3(C)CC[C@@H]12 [DROSPIRENONE]
2,Compound metabolized,C#C[C@]1(OC(C)=O)CC[C@H]2[C@@H]3CCC4=C[C@@H](OC(C)=O)CC[C@@H]4[C@H]3CC[C@@]21C [ETHYNODIOL DIACETATE]

# Test: as §1, with “Z-004” for “Z-027”, “ERS12561804” for “ERS12561826”
# Details: 2 µM
row,Bacterial Biotransformation,SMILES
1,Compound NOT metabolized,C[C@]12CCC(=O)C=C1[C@@H]1C[C@@H]1[C@H]1[C@@H]3[C@@H]4C[C@@H]4[C@@]4(CCC(=O)O4)[C@@]3(C)CC[C@@H]12 [DROSPIRENONE]
2,Compound metabolized,C#C[C@]1(OC(C)=O)CC[C@H]2[C@@H]3CCC4=C[C@@H](OC(C)=O)CC[C@@H]4[C@H]3CC[C@@]21C [ETHYNODIOL DIACETATE]

# Test: as §2, with “on WLS-370” for “on Z-019”, “to human” for “to rat”, “number: ERS12561793” for “number: ERS12561818”
# Details: 2 µM
row,Bacterial Biotransformation,SMILES
1,Compound metabolized,C[C@]12CCC(=O)C=C1[C@@H]1C[C@@H]1[C@H]1[C@@H]3[C@@H]4C[C@@H]4[C@@]4(CCC(=O)O4)[C@@]3(C)CC[C@@H]12 [DROSPIRENONE]
2,Compound metabolized,C#C[C@]1(OC(C)=O)CC[C@H]2[C@@H]3CCC4=C[C@@H](OC(C)=O)CC[C@@H]4[C@H]3CC[C@@]21C [ETHYNODIOL DIACETATE]

# Test: as §2, with “on WLS-310” for “on Z-019”, “to human” for “to rat”, “number: ERS12561785” for “number: ERS12561818”
# Details: 2 µM
row,Bacterial Biotransformation,SMILES
1,Compound metabolized,C[C@]12CCC(=O)C=C1[C@@H]1C[C@@H]1[C@H]1[C@@H]3[C@@H]4C[C@@H]4[C@@]4(CCC(=O)O4)[C@@]3(C)CC[C@@H]12 [DROSPIRENONE]
2,Compound metabolized,C#C[C@]1(OC(C)=O)CC[C@H]2[C@@H]3CCC4=C[C@@H](OC(C)=O)CC[C@@H]4[C@H]3CC[C@@]21C [ETHYNODIOL DIACETATE]

# Test: as §2, with “on WLS-086” for “on Z-019”, “to human” for “to rat”, “number: ERS12561752” for “number: ERS12561818”
# Details: 2 µM
row,Bacterial Biotransformation,SMILES
1,Compound metabolized,C[C@]12CCC(=O)C=C1[C@@H]1C[C@@H]1[C@H]1[C@@H]3[C@@H]4C[C@@H]4[C@@]4(CCC(=O)O4)[C@@]3(C)CC[C@@H]12 [DROSPIRENONE]
2,Compound metabolized,C#C[C@]1(OC(C)=O)CC[C@H]2[C@@H]3CCC4=C[C@@H](OC(C)=O)CC[C@@H]4[C@H]3CC[C@@]21C [ETHYNODIOL DIACETATE]

# Test: as §2, with “on WLS-010” for “on Z-019”, “to human” for “to rat”, “number: ERS12561743” for “number: ERS12561818”
# Details: 2 µM
row,Bacterial Biotransformation,SMILES
1,Compound metabolized,C[C@]12CCC(=O)C=C1[C@@H]1C[C@@H]1[C@H]1[C@@H]3[C@@H]4C[C@@H]4[C@@]4(CCC(=O)O4)[C@@]3(C)CC[C@@H]12 [DROSPIRENONE]
2,Compound metabolized,C#C[C@]1(OC(C)=O)CC[C@H]2[C@@H]3CCC4=C[C@@H](OC(C)=O)CC[C@@H]4[C@H]3CC[C@@]21C [ETHYNODIOL DIACETATE]

# Test: as §2, with “on WLS-007” for “on Z-019”, “to human” for “to rat”, “number: ERS12561742” for “number: ERS12561818”
# Details: 2 µM
row,Bacterial Biotransformation,SMILES
1,Compound metabolized,C[C@]12CCC(=O)C=C1[C@@H]1C[C@@H]1[C@H]1[C@@H]3[C@@H]4C[C@@H]4[C@@]4(CCC(=O)O4)[C@@]3(C)CC[C@@H]12 [DROSPIRENONE]
2,Compound metabolized,C#C[C@]1(OC(C)=O)CC[C@H]2[C@@H]3CCC4=C[C@@H](OC(C)=O)CC[C@@H]4[C@H]3CC[C@@]21C [ETHYNODIOL DIACETATE]

# Details: human gut metagenome, 24 h, 2 µM
row,Bacterial Biotransformation,SMILES
1,Compound NOT metabolized,C[C@]12CCC(=O)C=C1[C@@H]1C[C@@H]1[C@H]1[C@@H]3[C@@H]4C[C@@H]4[C@@]4(CCC(=O)O4)[C@@]3(C)CC[C@@H]12 [DROSPIRENONE]
2,Compound metabolized,C#C[C@]1(OC(C)=O)CC[C@H]2[C@@H]3CCC4=C[C@@H](OC(C)=O)CC[C@@H]4[C@H]3CC[C@@]21C [ETHYNODIOL DIACETATE]

# Details: human gut metagenome, 24 h, 2 µM
# Remark: another data set of the same source
row,Bacterial Biotransformation,SMILES
1,Compound metabolized,C[C@]12CCC(=O)C=C1[C@@H]1C[C@@H]1[C@H]1[C@@H]3[C@@H]4C[C@@H]4[C@@]4(CCC(=O)O4)[C@@]3(C)CC[C@@H]12 [DROSPIRENONE]
2,Compound metabolized,C#C[C@]1(OC(C)=O)CC[C@H]2[C@@H]3CCC4=C[C@@H](OC(C)=O)CC[C@@H]4[C@H]3CC[C@@]21C [ETHYNODIOL DIACETATE]

# Details: human gut metagenome, 24 h, 2 µM
# Remark: another data set of the same source
row,Bacterial Biotransformation,SMILES
1,Compound metabolized,C[C@]12CCC(=O)C=C1[C@@H]1C[C@@H]1[C@H]1[C@@H]3[C@@H]4C[C@@H]4[C@@]4(CCC(=O)O4)[C@@]3(C)CC[C@@H]12 [DROSPIRENONE]
2,Compound metabolized,C#C[C@]1(OC(C)=O)CC[C@H]2[C@@H]3CCC4=C[C@@H](OC(C)=O)CC[C@@H]4[C@H]3CC[C@@]21C [ETHYNODIOL DIACETATE]

# Details: human gut metagenome, 24 h, 2 µM
# Remark: another data set of the same source
row,Bacterial Biotransformation,SMILES
1,Compound metabolized,C[C@]12CCC(=O)C=C1[C@@H]1C[C@@H]1[C@H]1[C@@H]3[C@@H]4C[C@@H]4[C@@]4(CCC(=O)O4)[C@@]3(C)CC[C@@H]12 [DROSPIRENONE]
2,Compound NOT metabolized,C#C[C@]1(OC(C)=O)CC[C@H]2[C@@H]3CCC4=C[C@@H](OC(C)=O)CC[C@@H]4[C@H]3CC[C@@]21C [ETHYNODIOL DIACETATE]

# Details: human gut metagenome, 24 h, 2 µM
# Remark: another data set of the same source
row,Bacterial Biotransformation,SMILES
1,Compound NOT metabolized,C[C@]12CCC(=O)C=C1[C@@H]1C[C@@H]1[C@H]1[C@@H]3[C@@H]4C[C@@H]4[C@@]4(CCC(=O)O4)[C@@]3(C)CC[C@@H]12 [DROSPIRENONE]
2,Compound metabolized,C#C[C@]1(OC(C)=O)CC[C@H]2[C@@H]3CCC4=C[C@@H](OC(C)=O)CC[C@@H]4[C@H]3CC[C@@]21C [ETHYNODIOL DIACETATE]

# Details: human gut metagenome, 24 h, 2 µM
# Remark: another data set of the same source
row,Bacterial Biotransformation,SMILES
1,Compound metabolized,C[C@]12CCC(=O)C=C1[C@@H]1C[C@@H]1[C@H]1[C@@H]3[C@@H]4C[C@@H]4[C@@]4(CCC(=O)O4)[C@@]3(C)CC[C@@H]12 [DROSPIRENONE]
2,Compound metabolized,C#C[C@]1(OC(C)=O)CC[C@H]2[C@@H]3CCC4=C[C@@H](OC(C)=O)CC[C@@H]4[C@H]3CC[C@@]21C [ETHYNODIOL DIACETATE]

# Details: human gut metagenome, 24 h, 2 µM
# Remark: another data set of the same source
row,Bacterial Biotransformation,SMILES
1,Compound metabolized,C[C@]12CCC(=O)C=C1[C@@H]1C[C@@H]1[C@H]1[C@@H]3[C@@H]4C[C@@H]4[C@@]4(CCC(=O)O4)[C@@]3(C)CC[C@@H]12 [DROSPIRENONE]
2,Compound metabolized,C#C[C@]1(OC(C)=O)CC[C@H]2[C@@H]3CCC4=C[C@@H](OC(C)=O)CC[C@@H]4[C@H]3CC[C@@]21C [ETHYNODIOL DIACETATE]

# From ChEMBL document CHEMBL5724914, “Linking interpersonal differences in gut microbiota composition and drug biotransformation activity” (2024)
